≈ marks a conversion by molar mass, not a printed value.
How the values were obtained:
LOX IMVI = assay: cells; conditions: Homo sapiens, 48 h
MDA-MB-435 = assay: cells; conditions: Homo sapiens, MDA-MB-435, 48 h
OVCAR-5 = assay: cells; conditions: Homo sapiens, OVCAR-5, 48 h
NCI-H23 = assay: cells; conditions: Homo sapiens, NCI-H23, 48 h
UACC-257 = assay: cells; conditions: Homo sapiens, UACC-257, 48 h
CCRF-CEM = assay: cells; conditions: Homo sapiens, 48 h
SK-MEL-5 = assay: cells; conditions: Homo sapiens, SK-MEL-5, 48 h
OVCAR-3 = assay: cells; conditions: Homo sapiens, OVCAR-3, 48 h
[1] = tested on: M. tuberculosis ATCC 27294; assay: Antitubercular broth microdilution MIC; format: cell-based; conditions: Mycobacterium tuberculosis; M. tuberculosis ATCC 27294 (H37Rv); read-out: Minimum inhibitory concentration (MIC)
HOP-92 = assay: cells; conditions: Homo sapiens, HOP-92, 48 h
HL-60(TB) = assay: cells; conditions: Homo sapiens, HL-60, 48 h
MCF7 = assay: cells; conditions: Homo sapiens, MCF7, 48 h
TK-10 = assay: cells; conditions: Homo sapiens, TK-10, 48 h
SR = assay: cells; conditions: Homo sapiens, 48 h
786-0 = assay: cells; conditions: Homo sapiens, 786-0, 48 h
SF-268 = assay: cells; conditions: Homo sapiens, SF-268, 48 h
[2] = tested on: Trichophyton mentagrophytes (CCC 202-2000); assay: Antifungal broth microdilution (CLSI); format: cell-based; conditions: Tm: Trichophyton mentagrophytes
How it was run: (§1)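 Broth microdilution followed CLSI M27-A3 for yeasts and the filamentous-fungi reference method, in 200 μL final volume with DMSO-matched growth controls. Plates were incubated in the dark and humid at 30 °C for a time suited to each fungus; testing was done in triplicate.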

[3] = tested on: Candida albicans (ATCC 10231); assay: Antifungal broth microdilution (CLSI); format: cell-based; conditions: ATCC10231; Ca: Candida albicans
How it was run: as §1

[4] = tested on: Trichophyton rubrum (CCC 134-2000); assay: Antifungal broth microdilution (CLSI); format: cell-based; conditions: Tr: Trichophyton rubrum
How it was run: as §1

A. niger (ATCC 9029) = assay: Antifungal broth microdilution (CLSI); format: cell-based; conditions: ATCC9029; Ani: Aspergillus niger
How it was run: as §1

[5] = tested on: Cryptococcus neoformans (ATCC 32264); assay: Antifungal broth microdilution (CLSI); format: cell-based; conditions: ATCC32264; Cn: Cryptococcus neoformans
How it was run: as §1

A. flavus (ATCC 9170) = assay: Antifungal broth microdilution (CLSI); format: cell-based; conditions: ATCC9170; Afl: Aspergillus flavus
How it was run: as §1

A498 = assay: cells; conditions: Homo sapiens, A498, 48 h
NCI/ADR-RES = assay: cells; conditions: Homo sapiens, 48 h
OVCAR-4 = assay: cells; conditions: Homo sapiens, OVCAR-4, 48 h
SF-295 = assay: cells; conditions: Homo sapiens, SF-295, 48 h
SK-MEL-2 = assay: cells; conditions: Homo sapiens, SK-MEL-2, 48 h
NCI-H460 = assay: cells; conditions: Homo sapiens, NCI-H460, 48 h
IGROV1 = assay: cells; conditions: Homo sapiens, IGROV-1, 48 h
NCI-H226 = assay: cells; conditions: Homo sapiens, NCI-H226, 48 h
K-562 = assay: cells; conditions: Homo sapiens, K562, 48 h
SN12C = assay: cells; conditions: Homo sapiens, 48 h

For COc1ccc(/C=C/C(=O)c2ccc(S(=O)(=O)NCCNc3nc(Nc4ccc(F)cc4)nc(N(C)C)n3)cc2)cc1 [24c], the GI50 (LOX IMVI) was 3.23 µM, the CC50 (LOX IMVI; read-out: LC50, LOX IMVI, 48 h) was 34 µM and the GI50 (MDA-MB-435) was 5.47 µM. The CC50 (MDA-MB-435; read-out: LC50) was 79.6 µM, the GI50 (OVCAR-5) was 8.43 µM and the CC50 (OVCAR-5; read-out: LC50) was over 100 µM. It also gave a GI50 (NCI-H23) of 10.4 µM, a CC50 (NCI-H23; read-out: LC50) of over 100 µM and a GI50 (UACC-257) of 13.3 µM. The CC50 (UACC-257; read-out: LC50) was over 100 µM, the GI50 (CCRF-CEM) was 4.09 µM and the CC50 (CCRF-CEM; read-out: LC50) was over 100 µM. It also gave a GI50 (SK-MEL-5) of 3.5 µM, a CC50 (SK-MEL-5; read-out: LC50) of 36.4 µM and a GI50 (OVCAR-3) of 5.01 µM. The CC50 (OVCAR-3; read-out: LC50) was 59.4 µM, the MIC [1] was 25 mg/L (≈ 42.3 µM) and the GI50 (HOP-92) was 3.25 µM. The CC50 (HOP-92; read-out: LC50) was over 100 µM, the GI50 (HL-60(TB)) was 3.6 µM and the CC50 (HL-60(TB); read-out: LC50) was over 100 µM. For the same molecule, the GI50 (MCF7) was 1.93 µM, the CC50 (MCF7; read-out: LC50) was 46.1 µM and the GI50 (TK-10) was 8.09 µM. For the same molecule, the CC50 (TK-10; read-out: LC50) was over 100 µM, the GI50 (SR) was 2.97 µM and the CC50 (SR; read-out: LC50) was over 100 µM. It also gave a GI50 (786-0) of 6.33 µM, a CC50 (786-0; read-out: LC50) of over 100 µM and a GI50 (SF-268) of 4.43 µM. The CC50 (SF-268; read-out: LC50) was over 100 µM, the MIC [2] was over 250 mg/L and the MIC [3] was over 250 mg/L. It also gave an MIC [4] of 125 mg/L (≈ 211 µM), an MIC (A. niger (ATCC 9029)) of over 250 mg/L and an MIC [5] of over 250 mg/L. It also gave an MIC (A. flavus (ATCC 9170)) of over 250 mg/L, a GI50 (A498) of 10 µM and a CC50 (A498; read-out: LC50) of 87.8 µM. It also gave a GI50 (NCI/ADR-RES) of 5.66 µM, a CC50 (NCI/ADR-RES; read-out: LC50) of over 100 µM and a GI50 (OVCAR-4) of 4.12 µM. It also gave a CC50 (OVCAR-4; read-out: LC50) of over 100 µM, a GI50 (SF-295) of 5.05 µM and a CC50 (SF-295; read-out: LC50) of 62.4 µM. The GI50 (SK-MEL-2) was 8.1 µM, the CC50 (SK-MEL-2; read-out: LC50) was 53.4 µM and the GI50 (NCI-H460) was 4.11 µM. It also gave a CC50 (NCI-H460; read-out: LC50) of over 100 µM, a GI50 (IGROV1) of 10.8 µM and a CC50 (IGROV1; read-out: LC50) of over 100 µM. For the same molecule, the GI50 (NCI-H226) was 3.8 µM, the CC50 (NCI-H226; read-out: LC50) was over 100 µM and the GI50 (K-562; K-562, 48 h) was 3.99 µM. For the same molecule, the CC50 (K-562; read-out: LC50) was over 100 µM, the GI50 (SN12C) was 3.6 µM and the CC50 (SN12C; read-out: LC50) was 44.5 µM.
